Source: the supplement of paper PMC10307832

Tests used:
Experiment in all cases: relative viability (nuclei count vs DMSO), 5 days (fraction); higher = more cells survive
[1] = tested on: NCI-H460
Method in brief: (§1)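 A single step with final 0.05% Triton X-100, 1% formaldehyde and 1 ug/ml Hoechst fixed the cells and stained nuclei 5 days after treatment. Lung cancer cell lines in 1536-well plates had been treated by pin tool the day after seeding with one drug alone or a fixed anchor-drug dose plus five library-drug doses (not always all listed) in √10 steps, and nuclei were counted on 4× images. Relative viability is the ratio of nuclei in treated wells to nuclei in vehicle wells, taken as the median of duplicate plates.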

[2] = tested on: NCI-H2342
Method in brief: as §1

[3] = tested on: EPLC-272H
Method in brief: as §1

[4] = tested on: NCI-H2228
Method in brief: as §1

[5] = tested on: NCI-H322M
Method in brief: as §1

[6] = tested on: COR-L 105
Method in brief: as §1

[7] = tested on: NCI-H2087
Method in brief: as §1

[8] = tested on: ChaGo-K-1
Method in brief: as §1

[9] = tested on: NCI-H2009
Method in brief: as §1

[10] = tested on: NCI-H1993
Method in brief: as §1

[11] = tested on: SK-MES-1
Method in brief: as §1

[12] = tested on: NCI-H441
Method in brief: as §1

[13] = tested on: NCI-H1975
Method in brief: as §1

[14] = tested on: NCI-H1792
Method in brief: as §1

[15] = tested on: H3255
Method in brief: as §1

[16] = tested on: NCI-H2085
Method in brief: as §1

[17] = tested on: CAL-12T
Method in brief: as §1

[18] = tested on: HCC-366
Method in brief: as §1

[19] = tested on: EKVX
Method in brief: as §1

[20] = tested on: NCI-H1355
Method in brief: as §1

[21] = tested on: HCC-827
Method in brief: as §1

## Cc1csc(=NC2CCCCC2)n1/N=C/c1ccc(O)c(O)c1O [MIM1] + CC(=O)Nc1cccc(-n2c(=O)n(C3CC3)c(=O)c3c(Nc4ccc(I)cc4F)n(C)c(=O)c(C)c32)c1 [Trametinib] (partner 0.02 µM)
[1]; first compound 0.2 µM
  relative viability: 0.103
[1]; first compound 0.6325 µM
  relative viability: 0.136
[1]; first compound 2 µM
  relative viability: 0.118
[1]; first compound 6.325 µM
  relative viability: 0.0462
[1]; first compound 20 µM
  relative viability: 0.0293
[2]; first compound 0.2 µM
  relative viability: 0.842
[2]; first compound 0.6325 µM
  relative viability: 0.903
[2]; first compound 2 µM
  relative viability: 0.787
[2]; first compound 6.325 µM
  relative viability: 0.716
[2]; first compound 20 µM
  relative viability: 1.1
[3]; first compound 0.2 µM
  relative viability: 0.322
[3]; first compound 0.6325 µM
  relative viability: 0.279
[3]; first compound 2 µM
  relative viability: 0.273
[3]; first compound 6.325 µM
  relative viability: 0.24
[3]; first compound 20 µM
  relative viability: 0.16
[4]; first compound 0.2 µM
  relative viability: 0.54
[4]; first compound 0.6325 µM
  relative viability: 0.642
[4]; first compound 2 µM
  relative viability: 0.506
[4]; first compound 6.325 µM
  relative viability: 0.307
[4]; first compound 20 µM
  relative viability: 0.13
[5]; first compound 0.2 µM
  relative viability: 0.508
[5]; first compound 0.6325 µM
  relative viability: 0.596
[5]; first compound 2 µM
  relative viability: 0.456
[5]; first compound 6.325 µM
  relative viability: 0.526
[5]; first compound 20 µM
  relative viability: 0.577
[6]; first compound 0.2 µM
  relative viability: 0.45
[6]; first compound 0.6325 µM
  relative viability: 0.548
[6]; first compound 2 µM
  relative viability: 0.44
[6]; first compound 6.325 µM
  relative viability: 0.406
[6]; first compound 20 µM
  relative viability: 0.439
[7]; first compound 0.2 µM
  relative viability: 0.293
[7]; first compound 0.6325 µM
  relative viability: 0.227
[7]; first compound 2 µM
  relative viability: 0.197
[7]; first compound 6.325 µM
  relative viability: 0.175
[7]; first compound 20 µM
  relative viability: 0.202
[8]; first compound 0.2 µM
  relative viability: 0.889
[8]; first compound 0.6325 µM
  relative viability: 0.913
[8]; first compound 2 µM
  relative viability: 0.876
[8]; first compound 6.325 µM
  relative viability: 0.607
[8]; first compound 20 µM
  relative viability: 0.193
[9]; first compound 0.2 µM
  relative viability: 0.257
[9]; first compound 0.6325 µM
  relative viability: 0.261
[9]; first compound 2 µM
  relative viability: 0.27
[9]; first compound 6.325 µM
  relative viability: 0.208
[9]; first compound 20 µM
  relative viability: 0.329
[10]; first compound 0.2 µM
  relative viability: 0.433
[10]; first compound 0.6325 µM
  relative viability: 0.43
[10]; first compound 2 µM
  relative viability: 0.511
[10]; first compound 6.325 µM
  relative viability: 0.448
[10]; first compound 20 µM
  relative viability: 0.351
[11]; first compound 0.2 µM
  relative viability: 0.569
[11]; first compound 0.6325 µM
  relative viability: 0.601
[11]; first compound 2 µM
  relative viability: 0.58
[11]; first compound 6.325 µM
  relative viability: 0.518
[11]; first compound 20 µM
  relative viability: 0.514
[12]; first compound 0.2 µM
  relative viability: 0.558
[12]; first compound 0.6325 µM
  relative viability: 0.409
[12]; first compound 2 µM
  relative viability: 0.484
[12]; first compound 6.325 µM
  relative viability: 0.302
[12]; first compound 20 µM
  relative viability: 0.211
[13]; first compound 0.2 µM
  relative viability: 0.366
[13]; first compound 0.6325 µM
  relative viability: 0.372
[13]; first compound 2 µM
  relative viability: 0.376
[13]; first compound 6.325 µM
  relative viability: 0.208
[13]; first compound 20 µM
  relative viability: 0.123
[14]; first compound 0.2 µM
  relative viability: 0.4
[14]; first compound 0.6325 µM
  relative viability: 0.376
[14]; first compound 2 µM
  relative viability: 0.456
[14]; first compound 6.325 µM
  relative viability: 0.384
[14]; first compound 20 µM
  relative viability: 0.325
[15]; first compound 0.2 µM
  relative viability: 0.578
[15]; first compound 0.6325 µM
  relative viability: 0.618
[15]; first compound 2 µM
  relative viability: 0.56
[15]; first compound 6.325 µM
  relative viability: 0.529
[15]; first compound 20 µM
  relative viability: 0.293
[16]; first compound 0.2 µM
  relative viability: 0.619
[16]; first compound 0.6325 µM
  relative viability: 0.512
[16]; first compound 2 µM
  relative viability: 0.62
[16]; first compound 6.325 µM
  relative viability: 0.436
[16]; first compound 20 µM
  relative viability: 0.406
[17]; first compound 0.2 µM
  relative viability: 0.406
[17]; first compound 0.6325 µM
  relative viability: 0.378
[17]; first compound 2 µM
  relative viability: 0.341
[17]; first compound 6.325 µM
  relative viability: 0.316
[17]; first compound 20 µM
  relative viability: 0.249
[18]; first compound 0.2 µM
  relative viability: 0.321
[18]; first compound 2 µM
  relative viability: 0.3
[18]; first compound 6.325 µM
  relative viability: 0.0405
[18]; first compound 20 µM
  relative viability: 0.0273
[19]; first compound 0.2 µM
  relative viability: 0.304
[19]; first compound 0.6325 µM
  relative viability: 0.287
[19]; first compound 2 µM
  relative viability: 0.289
[19]; first compound 6.325 µM
  relative viability: 0.267
[19]; first compound 20 µM
  relative viability: 0.269
[20]; first compound 0.2 µM
  relative viability: 0.419
[20]; first compound 0.6325 µM
  relative viability: 0.436
[20]; first compound 2 µM
  relative viability: 0.457
[20]; first compound 6.325 µM
  relative viability: 0.384
[20]; first compound 20 µM
  relative viability: 0.375
[21]; first compound 0.2 µM
  relative viability: 0.501
[21]; first compound 0.6325 µM
  relative viability: 0.506
[21]; first compound 2 µM
  relative viability: 0.522
[21]; first compound 6.325 µM
  relative viability: 0.384
[21]; first compound 20 µM
  relative viability: 0.443
